Where a name gives a salt, the structure may show the parent alone.
What was measured:
[1] = target: T1, angiotensin II (AII) receptors, guinea pig adrenal gland membrane (Cavia porcellus, UniProt Q9WV26); test: Test A: displacement of radiolabelled AII binding to guinea pig adrenal cell surface membranes; conditions: in vitro, read-out: IC50 (concentration for 50% displacement of radiolabelled AII binding)
T1 construct: from tissue; host or cells: guinea pig adrenal gland, cell surface membrane fraction
T1 sequence (Q9WV26 1-359): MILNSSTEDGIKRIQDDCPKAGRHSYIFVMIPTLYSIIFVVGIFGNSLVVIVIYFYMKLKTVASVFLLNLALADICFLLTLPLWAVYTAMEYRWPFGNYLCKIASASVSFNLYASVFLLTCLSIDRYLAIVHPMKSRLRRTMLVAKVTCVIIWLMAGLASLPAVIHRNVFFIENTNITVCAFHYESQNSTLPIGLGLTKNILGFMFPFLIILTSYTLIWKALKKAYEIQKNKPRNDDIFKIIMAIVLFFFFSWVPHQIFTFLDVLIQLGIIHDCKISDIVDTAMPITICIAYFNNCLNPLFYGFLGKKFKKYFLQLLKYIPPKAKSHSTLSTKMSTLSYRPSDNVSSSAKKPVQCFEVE
Method: (§1) The antagonism of one or more of the physiological actions of AII and, in particular, the antagonism of the interaction of AII with the receptors which mediate its effects on a target tissue, may be assessed using one or more of the following, routine laboratory procedures.
Test A: This in vitro procedure involves the incubation of the test compound initially at a concentration of 100 micromolar (or less) in a buffered mixture containing fixed concentrations of radiolabelled AII and a cell surface membrane fraction prepared from a suitable angiotensin target tissue. In this test, the source of cell surface membranes is the guinea pig adrenal gland which is well known to response to AII. Interaction of the radiolabelled AII with its receptors (assessed as radiolabel bound to the particulate membrane fraction following removal of unbound radiolabel by a rapid filtration procedure such as is standard in such studies) is antagonized by compounds which also bind to the membrane receptor sites and the degree of antagonism (observed in the test as displacement of membrane-bound radioactivity) is determined readily by comparing the receptor-bound radioactivity in the presence of the test compound at the specified test concentration with a control value determined in the absence of the test compound. […]

[2] = test system: pressor responses induced by AII; test: Test C: antagonism of AII-induced pressor responses in terminally-anaesthetised or conscious rats; assay type: in vivo; conditions: iv, rat, i.v. administration, AII-induced pressor response
Text: as §1
Test C: This in vivo test involves using terminally-anaesthetised or conscious rats in which an arterial catheter has been implanted under anaesthesia for the measurement of changes in blood pressure. The AII antagonistic effects of the test compound following oral or parenteral administration, are assessed against pressor responses induced by AII. To ensure that the effect is specific the effect of the test compound on vasopressin-induced pressor responses may also be determined in the same preparation.

IC50 [1]: 18 nM
SMILES: CCNC(=O)OCCOc1ccc2nc(CC)cc(OCc3ccc(-c4ccccc4-c4nn[nH]n4)cc3)c2n1 [Example 2, 2-ethyl-6-(2-ethylaminocarbonyloxy)ethoxy)-4-[(2'-(1H-tetrazol-5-yl)biphenyl-4-yl)methoxy]-1,5-naphthyridine hydrochloride]
ED50 [2]: 0.08 mg/kg
